The values that follow come from patent publication US10633419B2, “Immunomodulators” (BRISTOL-MYERS SQUIBB COMPANY, priority 2014, dated 2020).

Each structure is given as a SMILES string. Starred links: 1 amine or outer side, 2 acyl side, 3 side chain; linkers in the order of their positions; H or OH if unused. Positions of bridges follow the written chain, without caps; N, C: chain ends. Non-standard residues stand in square brackets, D forms with d. Residues, ends and D or L forms follow the SMILES beside them. *: point of attachment. Dap(Nα-HOOC(CH2)16CO)OH = O=C(O)CCCCCCCCCCCCCCCCC(=O)N[C@@H](CN*)C(=O)O; X6 = O=C(O)CCCCCCCCCCCCCCCCC(=O)N[C@@H](CCC(=O)NCCCOCCOCCOCCCN*)C(=O)O; X13 = O=C(O)CCCCCCCCCCCCCCC(=O)N[C@@H](CCC(=O)NCCCOCCOCCOCCCN*)C(=O)O; Trp(1-CH2COOH) = N[C@@H](Cc1cn(CC(=O)O)c2ccccc12)C(=O)O; X10 = O=C(O)CCCCCCCCCCCCCCC(=O)N[C@@H](CN*)C(=O)O; γGlu = O=C(O)[C@H](CCC(=O)[*:2])N[*:1]; d(cisHyp) = O=C(O)[C@H]1C[C@@H](O)CN1; βAsp = O=C(O)[C@H](CC(=O)[*:2])N[*:1]; PEG6 = NCCOCCOCCOCCOCCOCCOCCC(=O)O; Hyp = O=C(O)[C@@H]1C[C@@H](O)CN1; NMeNle = CCCC[C@H](NC)C(=O)O; NMeA = CN[C@@H](C)C(=O)O; Dab = NCC[C@H](N)C(=O)O; Dap = NC[C@H](N)C(=O)O; Sar = CNCC(=O)O

One may read the IC50 as the concentration at which inhibition is half-maximal.

T1 sequence (Q9NZQ7 with tags, fused parts or gaps): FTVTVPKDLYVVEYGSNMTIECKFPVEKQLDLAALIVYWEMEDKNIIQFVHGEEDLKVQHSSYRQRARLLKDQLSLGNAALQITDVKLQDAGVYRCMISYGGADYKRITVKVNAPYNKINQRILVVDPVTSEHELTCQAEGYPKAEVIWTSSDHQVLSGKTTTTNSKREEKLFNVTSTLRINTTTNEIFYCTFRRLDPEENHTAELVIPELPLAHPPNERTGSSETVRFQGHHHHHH

This assay concerns the target T1, PD-L1 (Homo sapiens, UniProt Q9NZQ7).
T1 construct: hPDL1(19-239)-TVMV-His; made in house; host or cells: HEK293T
Kind of assay: PD-1/PD-L1 Homogenous Time-Resolved Fluorescence (HTRF) binding assay (PD-1-Ig/PD-L1-His). The following applies: inhibition of PD-1-Ig binding to PD-L1-TVMV-His; value given as range class; read-out: HTRF IC50. In outline:
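HTRF competition in dPBS with 0.1% BSA and 0.05% Tween-20: 20 nM PD-1-Ig added after 15 min compound pre-incubation with 10 nM PD-L1-His, then another 15 min. Signal (665/620 nm) after 30 min with APC anti-His (20 nM) and Eu anti-Ig (1 nM).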
In general terms: In TR-FRET formats the signal depends on donor and acceptor labels being close together.
For `CCCC[C@H]1C(=O)N(C)[C@@H](CCCC)C(=O)N[C@@H](CC(C)C)C(=O)N[C@H](C(=O)NCCCOCCOCCOCCCNC(=O)CC[C@H](NC(=O)CCCCCCCCCCCCCCC(=O)O)C(=O)O)CSCC(=O)N[C@@H](Cc2ccc(O)cc2)C(=O)N(C)[C@@H](C)C(=O)N[C@@H](CC(N)=O)C(=O)N2CCC[C@H]2C(=O)N[C@@H](CN)C(=O)N[C@@H](CC(C)C)C(=O)N2C[C@H](O)C[C@@H]2C(=O)N[C@@H](Cc2c[nH]c3ccccc23)C(=O)N[C@@H](CCN)C(=O)N[C@@H](Cc2cn(CC(=O)O)c3ccccc23)C(=O)N1C` [Example 11161] ({CH2CO}-Y[NMeA]NP[Dap]L[d(cisHyp)]W[Dab][Trp(1-CH2COOH)][NMeNle][NMeNle]LC-X13; thioether N-14), the IC50 is 100 to 1600 nM.

Turning to `CCCC[C@H]1C(=O)N(C)[C@@H](CCCC)C(=O)N[C@@H](CC(C)C)C(=O)N[C@H](C(=O)NCC(=O)N[C@@H](CC(=O)O)C(=O)NCCCOCCOCCOCCCNC(=O)CC[C@H](NC(=O)CCCCCCCCCCCCCCC(=O)O)C(=O)O)CSCC(=O)N[C@@H](Cc2ccc(O)cc2)C(=O)N(C)[C@@H](C)C(=O)N[C@@H](CC(N)=O)C(=O)N2CCC[C@H]2C(=O)N[C@@H](CN)C(=O)N[C@@H](CC(C)C)C(=O)N2C[C@H](O)C[C@@H]2C(=O)N[C@@H](Cc2c[nH]c3ccccc23)C(=O)N[C@@H](CCN)C(=O)N[C@@H](Cc2cn(CC(=O)O)c3ccccc23)C(=O)N1C` [Example 11162] ({CH2CO}-Y[NMeA]NP[Dap]L[d(cisHyp)]W[Dab][Trp(1-CH2COOH)][NMeNle][NMeNle]LCGD-X13; thioether N-14), the IC50 was in the range of 100 to 1600 nM.

For `CCCC[C@H]1C(=O)N(C)[C@@H](CCCC)C(=O)N[C@@H](CC(C)C)C(=O)N[C@H](C(=O)NCC(=O)N[C@@H](CCC(=O)NCCCOCCOCCOCCCNC(=O)CC[C@H](NC(=O)CCCCCCCCCCCCCCCCC(=O)O)C(=O)O)C(=O)O)CSCC(=O)N[C@@H](Cc2ccc(O)cc2)C(=O)N(C)[C@@H](C)C(=O)N[C@@H](CC(N)=O)C(=O)N2CCC[C@H]2C(=O)N[C@@H](CN)C(=O)N[C@@H](CC(C)C)C(=O)N2C[C@H](O)C[C@@H]2C(=O)N[C@@H](Cc2c[nH]c3ccccc23)C(=O)N[C@@H](CCN)C(=O)N[C@@H](Cc2cn(CC(=O)O)c3ccccc23)C(=O)N1C` [Example 11163] ({CH2CO}-Y[NMeA]NP[Dap]L[d(cisHyp)]W[Dab][Trp(1-CH2COOH)][NMeNle][NMeNle]LCGE(X6)-OH; thioether N-14), the IC50 lay within 0.3 to 9.9 nM.

With `CCCC[C@H]1C(=O)N(C)[C@@H](CCCC)C(=O)N[C@@H](CC(C)C)C(=O)N[C@H](C(=O)NCC(=O)N[C@@H](CC(=O)NCCOCCOCCOCCOCCOCCOCCC(=O)NC[C@H](NC(=O)CCCCCCCCCCCCCCC(=O)O)C(=O)O)C(=O)O)CSCC(=O)N[C@@H](Cc2ccc(O)cc2)C(=O)N(C)[C@@H](C)C(=O)N[C@@H](CC(N)=O)C(=O)N2CCC[C@H]2C(=O)N[C@@H](CN)C(=O)N[C@@H](CC(C)C)C(=O)N2C[C@H](O)C[C@@H]2C(=O)N[C@@H](Cc2c[nH]c3ccccc23)C(=O)N[C@@H](CCN)C(=O)N[C@@H](Cc2cn(CC(=O)O)c3ccccc23)C(=O)N1C` [Example 11164] ({CH2CO}-Y[NMeA]NP[Dap]L[d(cisHyp)]W[Dab][Trp(1-CH2COOH)][NMeNle][NMeNle]LCG[βAsp][PEG6]-X10; thioether N-14), the IC50 is 0.3 to 9.9 nM.

Regarding `CCCC[C@H]1C(=O)N(C)[C@@H](CCCC)C(=O)N[C@@H](CC(C)C)C(=O)N[C@H](C(=O)NCC(=O)N[C@@H](CCC(=O)NCCOCCOCCOCCOCCOCCOCCC(=O)NC[C@H](NC(=O)CCCCCCCCCCCCCCC(=O)O)C(=O)O)C(=O)O)CSCC(=O)N[C@@H](Cc2ccc(O)cc2)C(=O)N(C)[C@@H](C)C(=O)N[C@@H](CC(N)=O)C(=O)N2CCC[C@H]2C(=O)N[C@@H](CN)C(=O)N[C@@H](CC(C)C)C(=O)N2C[C@H](O)C[C@@H]2C(=O)N[C@@H](Cc2c[nH]c3ccccc23)C(=O)N[C@@H](CCN)C(=O)N[C@@H](Cc2cn(CC(=O)O)c3ccccc23)C(=O)N1C` [Example 11165] ({CH2CO}-Y[NMeA]NP[Dap]L[d(cisHyp)]W[Dab][Trp(1-CH2COOH)][NMeNle][NMeNle]LCG[γGlu][PEG6]-X10; thioether N-14), the IC50 lay in the range of 0.3 to 9.9 nM.

As to `CCCC[C@H]1C(=O)N(C)[C@@H](CCCC)C(=O)N[C@@H](CC(C)C)C(=O)N[C@H](C(=O)NCC(=O)N[C@@H](CC(=O)O)C(=O)NCCCOCCOCCOCCCNC(=O)CC[C@H](NC(=O)CCCCCCCCCCCCCCCCC(=O)O)C(=O)O)CSCC(=O)N[C@@H](Cc2ccc(O)cc2)C(=O)N(C)[C@@H](C)C(=O)N[C@@H](CC(N)=O)C(=O)N2CCC[C@H]2C(=O)N[C@@H](CN)C(=O)N[C@@H](CC(C)C)C(=O)N2C[C@H](O)C[C@@H]2C(=O)N[C@@H](Cc2c[nH]c3ccccc23)C(=O)N[C@@H](CCN)C(=O)N[C@@H](Cc2cn(CC(=O)O)c3ccccc23)C(=O)N1C` [Example 11166] ({CH2CO}-Y[NMeA]NP[Dap]L[d(cisHyp)]W[Dab][Trp(1-CH2COOH)][NMeNle][NMeNle]LCGD-X6; thioether N-14), the half-inhibitory concentration (IC50) lay in the range of 100 to 1600 nM.

Take `CCCC[C@H]1C(=O)N(C)[C@@H](CCCC)C(=O)N[C@@H](CC(C)C)C(=O)C[C@H](C(=O)NCC(=O)N[C@@H](CCC(=O)O)C(=O)NCCCOCCOCCOCCCNC(=O)CC[C@H](NC(=O)CCCCCCCCCCCCCCCCC(=O)O)C(=O)O)CSCC(=O)N[C@@H](Cc2ccc(O)cc2)C(=O)N(C)[C@@H](C)C(=O)N[C@@H](CC(N)=O)C(=O)N2CCC[C@H]2C(=O)N[C@@H](CN)C(=O)N[C@@H](CC(C)C)C(=O)N2C[C@H](O)C[C@H]2C(=O)N[C@@H](Cc2c[nH]c3ccccc23)C(=O)N[C@@H](CCN)C(=O)N[C@@H](Cc2cn(CC(=O)O)c3ccccc23)C(=O)N1C` [Example 11167]: the IC50 was 0.3 to 9.9 nM.

For `CCCC[C@H]1C(=O)N(C)[C@@H](CCCC)C(=O)N[C@@H](CC(C)C)C(=O)N[C@H](C(=O)NCC(=O)NCCCOCCOCCOCCCNC(=O)CC[C@H](NC(=O)CCCCCCCCCCCCCCC(=O)O)C(=O)O)CSCC(=O)N[C@@H](Cc2ccc(O)cc2)C(=O)N(C)[C@@H](C)C(=O)N[C@@H](CC(N)=O)C(=O)N2CCC[C@@H]2C(=O)N[C@@H](CN)C(=O)N[C@@H](CC(C)C)C(=O)N2C[C@H](O)C[C@@H]2C(=O)N[C@@H](Cc2c[nH]c3ccccc23)C(=O)N[C@@H](CCN)C(=O)N[C@@H](Cc2cn(CC(=O)O)c3ccccc23)C(=O)N1C` [Example 11168] ({CH2CO}-Y[NMeA]N[dP][Dap]L[d(cisHyp)]W[Dab][Trp(1-CH2COOH)][NMeNle][NMeNle]LCG-X13; thioether N-14), the IC50 was in the range of 0.3 to 9.9 nM.

`CCCC[C@H]1C(=O)N(C)[C@@H](CCCC)C(=O)N[C@@H](CC(C)C)C(=O)N[C@H](C(=O)NCC(=O)N[C@@H](CC(=O)O)C(=O)N[C@@H](CCC(=O)NCCCOCCOCCOCCCNC(=O)CC[C@H](NC(=O)CCCCCCCCCCCCCCC(=O)O)C(=O)O)C(=O)O)CSCC(=O)N[C@@H](Cc2ccc(O)cc2)C(=O)N(C)[C@@H](C)C(=O)N[C@@H](CC(N)=O)C(=O)N2CCC[C@H]2C(=O)N[C@@H](CN)C(=O)N[C@@H](CC(C)C)C(=O)N2C[C@H](O)C[C@H]2C(=O)N[C@@H](Cc2c[nH]c3ccccc23)C(=O)N[C@@H](CCN)C(=O)N[C@@H](Cc2cn(CC(=O)O)c3ccccc23)C(=O)N1C` [Example 11170] ({CH2CO}-Y[NMeA]NP[Dap]L[Hyp]W[Dab][Trp(1-CH2COOH)][NMeNle][NMeNle]LCGDE(X13)-OH; thioether N-14): the IC50 lay within 0.3 to 9.9 nM.

For `CCCC[C@H]1C(=O)N(C)[C@@H](CCCC)C(=O)N[C@@H](CC(C)C)C(=O)N[C@H](C(=O)N(C)CC(=O)NCCCOCCOCCOCCCNC(=O)CC[C@H](NC(=O)CCCCCCCCCCCCCCC(=O)O)C(=O)O)CSCC(=O)N[C@@H](Cc2ccc(O)cc2)C(=O)N(C)[C@@H](C)C(=O)N[C@@H](CC(N)=O)C(=O)N2CCC[C@H]2C(=O)N[C@@H](CN)C(=O)N[C@@H](CC(C)C)C(=O)N2C[C@H](O)C[C@H]2C(=O)N[C@@H](Cc2c[nH]c3ccccc23)C(=O)N[C@@H](CCN)C(=O)N[C@@H](Cc2cn(CC(=O)O)c3ccccc23)C(=O)N1C` [Example 11171] ({CH2CO}-Y[NMeA]NP[Dap]L[Hyp]W[Dab][Trp(1-CH2COOH)][NMeNle][NMeNle]LC[Sar]-X13; thioether N-14), the IC50 was in the range of 0.3 to 9.9 nM.

For the compound `CCCC[C@H]1C(=O)N(C)[C@@H](CCCC)C(=O)N[C@@H](CC(C)C)C(=O)N[C@H](C(=O)NCC(=O)N[C@@H](CC(=O)NC[C@H](NC(=O)CCCCCCCCCCCCCCCCC(=O)O)C(=O)O)C(=O)O)CSCC(=O)N[C@@H](Cc2ccc(O)cc2)C(=O)N(C)[C@@H](C)C(=O)N[C@@H](CC(N)=O)C(=O)N2CCC[C@H]2C(=O)N[C@@H](CN)C(=O)N[C@@H](CC(C)C)C(=O)N2C[C@H](O)C[C@H]2C(=O)N[C@@H](Cc2c[nH]c3ccccc23)C(=O)N[C@@H](CCN)C(=O)N[C@@H](Cc2cn(CC(=O)O)c3ccccc23)C(=O)N1C` [Example 11172] ({CH2CO}-Y[NMeA]NP[Dap]L[Hyp]W[Dab][Trp(1-CH2COOH)][NMeNle][NMeNle]LCGD(Dap(Nα-HOOC(CH2)16CO)OH)-OH; thioether N-14), the IC50 fell in the range of 10 to 99 nM.

For the compound `CCCC[C@H]1C(=O)N(C)[C@@H](CCCC)C(=O)N[C@@H](CC(C)C)C(=O)N[C@H](C(=O)NCC(=O)N[C@@H](CCC(=O)NC[C@H](NC(=O)CCCCCCCCCCCCCCCCC(=O)O)C(=O)O)C(=O)O)CSCC(=O)N[C@@H](Cc2ccc(O)cc2)C(=O)N(C)[C@@H](C)C(=O)N[C@@H](CC(N)=O)C(=O)N2CCC[C@H]2C(=O)N[C@@H](CN)C(=O)N[C@@H](CC(C)C)C(=O)N2C[C@H](O)C[C@H]2C(=O)N[C@@H](Cc2c[nH]c3ccccc23)C(=O)N[C@@H](CCN)C(=O)N[C@@H](Cc2cn(CC(=O)O)c3ccccc23)C(=O)N1C` [Example 11173] ({CH2CO}-Y[NMeA]NP[Dap]L[Hyp]W[Dab][Trp(1-CH2COOH)][NMeNle][NMeNle]LCGE(Dap(Nα-HOOC(CH2)16CO)OH)-OH; thioether N-14), the IC50 is 100 to 1600 nM.
